Results as given in PMC4038399, “Experimental validation of [sequence]^comb virtual ligand screening results for eight proteins yields novel nanomolar and micromolar binders” (Journal of Cheminformatics, 2014).
Where two headings read alike, the source gives them in different places.

Columns and labels:
[1] = molecular target: Nucleosome assembly protein 1 (NAP1) (Plasmodium knowlesi, UniProt A0A384KYS3); assay: Thermal shift (thermal melt) assay, Sypro orange; assay type: binding, P. knowlesi; conditions: for Kd: approximate, computed from the thermal shift, read-out: KD (Approx)
Experimental: (§1) High throughput thermal shift assays were carried out following established guidelines (Additional file 1: Table S1). Protein melting curves were obtained from samples aliquoted in 96-well plates using a RealPlex quantitative PCR instrument from Eppendorf (Eppendorf, NY, USA), with Sypro orange dye from Invitrogen as the fluorescent probe. A uniform final concentration of 5 X (supplied as a 5000 X stock solution) was used in all experiments. The dye was excited at 465 nm and emission recorded at 580 nm using the instrument’s filters. A heating ramp of 1°C/min from 25°C to 74°C was used, and one data point acquired for each degree increment. For standardization, different buffers and pH were checked. Thereafter, 100 mM HEPES pH 7.3 and 150 mM NaCl were used in all unfolding experiments. The volume of each reaction was 20 μl, and appropriate dye and protein controls were included. All experiments were done with a minimum of two replicates, with the mean value considered for further analysis. Several drugs/small molecules interact with Sypro orange and lead to aberrant signal enhancements. An additional control to rule out drug-dye interaction was carried out with all the constituents kept constant except for the protein of interest. The protein/protein-drug curves were reported after subtracting the respective dye alone/drug-dye curves.
(§2) Each melting curve was assigned a quality score (Q), the ratio of the melting-associated increase in fluorescence (ΔFmelt) to the total fluorescence range (ΔFtotal). Q = 1 is a high-quality curve, while Q = 0 indicates no thermal transition. Though an arbitrary Q value cutoff was not applied to judge curve quality, the curves were manually curated with Q values reported. […] These were ignored (see Table 1).
(§3) Subsequent to standardization, (see SI Methods), the validity of the top 1% of […]^comb’s predictions on the test set of eight diverse proteins was examined. To be conservative, we focused only on those protein/ligand pairs showing single sigmoidal thermal transition curves. The fit to Boltzmann’s equation (Eq. 1) was employed to estimate the melting temperature from the observed intensity, I.
(§4) (4) I=Imin+Imax-Imin/1+e^Tm-T/a
(§5) Imin and Imax are the minimum and maximum intensities; a denotes the slope of the curve at the transition midpoint temperate, Tm. To estimate thermodynamic parameters, both van’t Hoff and Gibbs-Helmholtz analyses were done. To estimate the approximate ligand-binding affinity at Tm, Eq. (2) from reference was used with slight modifications; ΔCp is ignored.
(§6) (5) KLTm=exp-ΔH/R1/Tm-1/To/L
(§7) KL(Tm) is the ligand association constant and [L] is the free ligand concentration at Tm ([LTm] ~ [L]total, when [L]total > > the total concentration of protein. KD is the inverse of KL(Tm).
(§8) Thermal unfolding of the eight benchmark proteins was carried out in a 20 μl reaction mix with 100 mM HEPES pH 7.3, 150 mM NaCl, 5 X Sypro orange dye, 10 μM protein and 1 mM of all the predicted ligands.

[2] = molecular target: T1, Tryptophanyl tRNA synthetase (TrpRS) (Homo sapiens, UniProt P23381); assay: Thermal shift (thermal melt) assay, Sypro orange; assay type: binding, H. sapiens; conditions: for ΔTm: in °C (unit assumed); for Q (quality score): ratio ΔFmelt/ΔFtotal
T1 sequence (P23381 1-471): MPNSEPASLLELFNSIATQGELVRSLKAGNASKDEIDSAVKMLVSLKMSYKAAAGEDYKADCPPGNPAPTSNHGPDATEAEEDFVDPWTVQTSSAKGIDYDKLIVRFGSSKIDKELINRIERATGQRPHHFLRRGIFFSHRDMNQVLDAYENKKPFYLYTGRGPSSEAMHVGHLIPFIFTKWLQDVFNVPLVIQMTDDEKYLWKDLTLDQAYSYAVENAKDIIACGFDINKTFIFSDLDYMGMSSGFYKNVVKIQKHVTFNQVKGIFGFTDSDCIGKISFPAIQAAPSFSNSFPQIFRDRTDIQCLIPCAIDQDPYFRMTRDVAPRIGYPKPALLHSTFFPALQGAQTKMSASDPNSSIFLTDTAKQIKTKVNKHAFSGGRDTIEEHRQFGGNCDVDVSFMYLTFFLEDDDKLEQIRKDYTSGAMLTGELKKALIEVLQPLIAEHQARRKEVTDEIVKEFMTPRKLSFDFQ
Experimental: as §1, with “The dye was excited at 465 nm and emission recorded at 580 nm using the instrument’s filters. A heating ramp of 1°C/min from 25°C to 74°C was used, and one data point acquired for each degree increment.” left out
(§9) Each melting curve was assigned a quality score (Q), the ratio of the melting-associated increase in fluorescence (ΔFmelt) to the total fluorescence range (ΔFtotal). Q = 1 is a high-quality curve, while Q = 0 indicates no thermal transition. Though an arbitrary Q value cutoff was not applied to judge curve quality, the curves were manually curated with Q values reported.
as §3, §4, §5, §6, §7, §8

[3] = molecular target: E. coli dihydrofolate reductase (DHFR) (Escherichia coli, UniProt P0ABQ4); assay: biochemical; assay type: binding; conditions: Table S3; for Kd: computed from the thermal shifts obtained, read-out: KD (Approx); for Q (quality score): ratio ΔFmelt/ΔFtotal of the melting curve; for ΔTm: thermal shift, in °C (unit assumed)
Experimental: as §1, with “The dye was excited at 465 nm and emission recorded at 580 nm using the instrument’s filters. A heating ramp of 1°C/min from 25°C to 74°C was used, and one data point acquired for each degree increment.” left out
as §9, §3, §4, §5, §6, §7, §8

[4] = molecular target: Ubiquitin conjugating enzyme (UCE) (Plasmodium falciparum, UniProt Q8I607); assay: Thermal shift (thermal melt) assay, Sypro orange; assay type: binding, P. falciparum; conditions: for Kd: approximate, computed from the thermal shift
Experimental: as §1, §2, §3, §4, §5, §6, §7, §8

[5] = molecular target: T2, 1000006: catalytic domain of protein tyrosine phosphatase (2G59) (Homo sapiens, UniProt Q16827); assay: Thermal shift (thermal melt) assay, Sypro orange; assay type: binding, H. sapiens; conditions: for ΔTm: in °C (unit assumed)
T2 construct: the catalytic domain of PTP from H. sapiens (PDB ID: 2G59) (1000006); New York structural genomics consortium (gift)
T2 sequence (Q16827 938-1195 limits assumed): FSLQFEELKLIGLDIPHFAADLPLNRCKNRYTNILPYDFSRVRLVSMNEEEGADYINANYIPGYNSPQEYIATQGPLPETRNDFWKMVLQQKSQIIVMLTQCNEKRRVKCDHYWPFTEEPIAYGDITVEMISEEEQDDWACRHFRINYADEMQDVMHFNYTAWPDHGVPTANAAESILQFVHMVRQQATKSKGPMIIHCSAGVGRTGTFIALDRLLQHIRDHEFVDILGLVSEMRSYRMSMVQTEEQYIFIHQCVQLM
Experimental: as §1, §2, §3, §4, §5, §6, §7, §8

[6] = molecular target: Catalytic subunit of cAMP-dependent protein kinase (cDPK) (Homo sapiens, UniProt P17612); assay: Thermal shift (thermal melt) assay, Sypro orange; assay type: binding, H. sapiens
Experimental: as §1, §2, §3, §4, §5, §6, §7, §8

[7] = molecular target: T3, 1000001: Carboxy-terminus phosphatase domain of protein tyrosine phosphatase (2NV5) (Mus musculus, UniProt Q64487); assay: Thermal shift (thermal melt) assay, Sypro orange; assay type: binding, M. musculus; design: key to Q (quality score): Q = ΔFmelt/ΔFtotal; 1 = high-quality curve, 0 = no transition; conditions: for ΔTm: in °C (unit assumed)
T3 construct: The C-terminal phosphatase domain from R. norvegicus (PDB ID: 2NV5) (1000001); New York structural genomics consortium (gift)
T3 sequence (Q64487 1331-1621): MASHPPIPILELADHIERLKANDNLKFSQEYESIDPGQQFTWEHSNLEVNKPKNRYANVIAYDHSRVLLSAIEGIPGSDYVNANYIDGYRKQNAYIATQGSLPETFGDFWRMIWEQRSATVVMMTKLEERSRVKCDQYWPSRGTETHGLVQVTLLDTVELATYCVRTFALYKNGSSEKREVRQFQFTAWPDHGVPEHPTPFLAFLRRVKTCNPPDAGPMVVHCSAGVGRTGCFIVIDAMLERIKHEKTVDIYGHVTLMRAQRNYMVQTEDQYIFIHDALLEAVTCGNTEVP
Experimental: as §1, §2, §3, §4, §5, §6, §7, §8

[8] = test system: HCT-116 colon carcinoma cell line; assay: Cytotoxic assay on cancer cell line; assay type: cell-based
Experimental: Antimicrobial and anti-cancer tests were performed as in [80].

[9] = Table S4, TrpRS, computed from the thermal shifts obtained, read-out: KD (Approx)
[10] = approximate, computed from the thermal shift, read-out: KD

E. coli dihydrofolate reductase (DHFR), sequence (P0ABQ4 whole entry): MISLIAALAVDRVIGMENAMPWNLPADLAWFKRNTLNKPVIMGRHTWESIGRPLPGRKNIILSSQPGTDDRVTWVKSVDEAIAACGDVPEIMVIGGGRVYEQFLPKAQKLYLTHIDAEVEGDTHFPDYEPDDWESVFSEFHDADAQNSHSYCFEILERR
Nucleosome assembly protein 1 (NAP1), sequence (A0A384KYS3 entry or part of it): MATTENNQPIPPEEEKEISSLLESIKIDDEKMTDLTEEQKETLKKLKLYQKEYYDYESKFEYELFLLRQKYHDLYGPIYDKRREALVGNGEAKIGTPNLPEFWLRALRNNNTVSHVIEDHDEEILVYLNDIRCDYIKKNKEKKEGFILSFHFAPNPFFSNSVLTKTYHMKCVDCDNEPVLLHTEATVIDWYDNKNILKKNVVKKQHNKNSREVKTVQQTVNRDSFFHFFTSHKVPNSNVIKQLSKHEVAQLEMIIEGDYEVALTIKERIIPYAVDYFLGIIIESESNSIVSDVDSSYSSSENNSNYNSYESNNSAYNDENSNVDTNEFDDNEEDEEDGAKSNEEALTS
Ubiquitin conjugating enzyme (UCE), sequence (Q8I607 1-147): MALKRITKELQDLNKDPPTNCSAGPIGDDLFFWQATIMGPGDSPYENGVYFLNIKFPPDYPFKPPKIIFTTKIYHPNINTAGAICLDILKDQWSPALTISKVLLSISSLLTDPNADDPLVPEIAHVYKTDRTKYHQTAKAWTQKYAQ

Nc1ccn([C@@H]2O[C@H](CO)[C@@H](O)[C@@H]2O)c(=O)n1 [NSC 63878]
Kd [1]: 183 µM

Nc1ccc(NC(=O)c2ccc(C(=O)Nc3ccc(N)cc3)cc2)cc1 [NSC 55152]
Kd [2, 9]: ~39.6 µM
ΔTm ([2]; Table S4, TrpRS): 6.17
Q (quality score) ([2]; Table S4, TrpRS): 0.95
Kd [2, 10]: 39.6 µM
Kd [3]: ~73.8 µM
Q (quality score) [3]: 0.2
ΔTm [3]: 5.89

O=C(Nc1ccc(Cl)cc1)c1cc2c(cc1O)[nH]c1ccccc12 [NSC 50651]
Q (quality score of melting curve, ΔFmelt/ΔFtotal) [4]: 0.13
ΔTm ([4]; Table S5, 1 mM ligand): 2.25 °C
Kd ([4]; listed as 50651, read-out: KD (Approx)): 197 µM
Kd ([4]; listed as NSC50651, read-out: KD (Approx)): 197 µM

CCOc1ccc(NC(=O)c2cc3ccccc3cc2O)cc1 [NSC 50690]
Kd ([5]; Table S4, protein 1000006, computed from the thermal shifts obtained, read-out: KD (Approx)): ~51.5 µM
ΔTm ([5]; Table S4, protein 1000006): 4.59
Q (quality score) ([5]; Table S4, protein 1000006, ratio ΔFmelt/ΔFtotal): 0.8
Kd [2, 9]: ~7.74 µM
ΔTm ([2]; Table S4, TrpRS): 10.27
Q (quality score) ([2]; Table S4, TrpRS): 0.8
Kd [2, 10]: 7.7 µM
Kd [3]: ~463 µM
Q (quality score) [3]: 0.3
ΔTm [3]: 0.23

Cc1cc2nc(CS)[nH]c2cc1C [NSC 97104]
Q (quality score of melting curve, ΔFmelt/ΔFtotal) [6]: 0.5
ΔTm ([6]; Table S5, 1 mM ligand): 1.01 °C
Kd ([6]; approximate, computed from the thermal shift, read-out: KD (Approx)): 200 µM

Oc1cccc2nc3ccccc3nc12 [NSC 88882]
ΔTm ([5]; Table S6, known binders of 1000001 tested on 1000006): 4.39
Kd ([7]; Table S4, protein 1000001, computed from the thermal shifts obtained, read-out: KD (Approx)): ~1.47 µM
ΔTm ([7]; Table S4, protein 1000001): 9.98
Q (quality score) ([7]; Table S4, protein 1000001, ratio ΔFmelt/ΔFtotal): 0.8
ΔTm ([7]; Table S6, 1000001, known binders of 1000001): 9.79
Kd [2, 9]: ~3.83 µM
ΔTm ([2]; Table S4, TrpRS): 12.07
Q (quality score) ([2]; Table S4, TrpRS): 0.6
Kd [2, 10]: ~3.8 µM
HCT-116 (IC-50) ([8]; Table S4): 4.44
HCT-116 (IC-50) ([8]; inhibitory concentration for 50% growth inhibition): 4.44 µg/mL

NC(=O)c1cc2c3ccccc3ccn2c1-c1ccccc1 [NSC 93427]
Q (quality score of melting curve, ΔFmelt/ΔFtotal) [4]: 0.05
Kd ([4]; listed as 93427, read-out: KD (Approx)): 1.38 µM
Kd ([4]; listed as NSC93427, read-out: KD (Approx)): ~1.4 µM
Kd ([4]; read-out: KD): 1.38 µM
ΔTm ([4]; thermal shift, 1 mM ligand, 10 μM protein, listed as 93427): 14.86 °C
ΔTm ([4]; thermal shift, 1 mM ligand, 10 μM protein, listed as NSC93427): ~ 15 °C

Cc1nc2c(O)cccc2cc1CO [NSC 227309]
Q (quality score of melting curve, ΔFmelt/ΔFtotal) [1]: 0.8
ΔTm ([1]; Table S5, 1 mM ligand): 0.64 °C
Kd [1]: 371 µM
